Measured values from US11236047B2 (ASTEX THERAPEUTICS LIMITED, priority 2017, dated 2022).
pIC50: −log10 of the molar value. Where two headings read alike, the source gives them in different places.

How the values were obtained:
[1] = test system: SN40R2 cells; test: Protocol B: SN40R2 CellTiter-Glo luminescent cell viability assay; settings: for IC50: read-out: SN40R2 IC50 (μM) (Protocol B)
[2] = test system: SJSA-1 cells; test: Protocol B: SJSA-1 CellTiter-Glo luminescent cell viability assay; settings: for pIC50: read-out: SJSA1 IC50, Protocol B, SJSA-1
Experimental: Protocol B: SJSA-1 and SN40R2 Assays
The CellTiter-Glo® Luminescent Cell Viability Assay is a homogeneous method to determine the number of viable cells in culture based on quantitation of the ATP present, which signals the presence of metabolically active cells. […] 100 μl of CTG reagent (Promega #G7573) was added to all wells and luminescence was measured on the topcount. The EC50 values were determined from a sigmoidal 4 parameter curve fit using XLfit in conjunction with Activity Base (IDBS; Guildford, Surrey, UK).

[3] = read-out: SN40R2 % inhibition at 10
[4] = read-out: SN40R2 % inhibition at 10, Protocol B, SN40R2, at 10 μM

Compound CC(O)(c1cc(F)c2c(c1)C(=O)N(Cc1ncc(Cl)cn1)[C@@]2(OCC1(CO)CC1)c1ccc(Cl)cc1)[C@H]1CC[C@H](O)CC1 (stereo partly drawn) [Example 401, (3R)-3-(4-chlorophenyl)-2-[(5-chloropyrimidin-2-yl)methyl]-4-fluoro-6-{1-hydroxy-1-[trans-4-hydroxycyclohexyl]ethyl}-3-{[1-(hydroxymethyl)cyclopropyl]methoxy}-2,3-dihydro-1H-isoindol-1-one] has an inhibition at 10 µM [1, 3] of 6% and a pIC50 [2] of 8.01.

CCC(O)(c1cc(F)c2c(c1)C(=O)N(Cc1ccc(C#N)cn1)[C@@]2(OCC1(CO)CC1)c1ccc(Cl)cc1)c1cn(C)cn1 (single isomer, unassigned) [Example 338] was tested, and the inhibition at 10 µM [1, 3] was 6% and the pIC50 [2] was 5.82.

For CO[C@]1(c2ccc(Cl)cc2)c2c(F)cc(C(C)(O)c3nccs3)cc2C(=O)N1Cc1ccc(Cl)cn1 (single isomer, unassigned) [Example 165], the IC50 [1] was 13 µM and the IC50 ([2]; read-out: SJSA1 IC50 (μM) (Protocol B), SJSA-1, Protocol B) was 1.4 µM.

[2H]C([2H])(O)C([2H])([2H])O[C@]1(c2ccc(Cl)cc2)c2c(F)cc(C(O)(CC)C3(F)CCN(C)CC3)cc2C(=O)N1Cc1ncc(Cl)cn1 (stereo partly drawn) [Example 580, (3R)-3-(4-chlorophenyl)-2-[(5-chloropyrimidin-2-yl)methyl]-4-fluoro-6-[1-(4-fluoro-1-methylpiperidin-4-yl)-1-hydroxypropyl]-3-[2-hydroxy(1,1,2,2-tetradeutero)ethoxy]-2,3-dihydro-1H-isoindol-1-one] was tested, and the inhibition at 10 µM [1, 4] was 13%.

With CC(O)(c1cc(F)c2c(c1)C(=O)N(Cc1ncc(Cl)cn1)[C@@]2(O[C@H]1CCOC1)c1ccc(Cl)cc1)C1(F)CCOCC1 (stereo partly drawn) [Example 493, (3R)-3-(4-chlorophenyl)-2-[(5-chloropyrimidin-2-yl)methyl]-4-fluoro-6-[1-(4-fluorooxan-4-yl)-1-hydroxyethyl]-3-[(3S)-oxolan-3-yloxy]-2,3-dihydro-1H-isoindol-1-one] the inhibition at 10 µM [1, 3] was 11%.

With C=CC(O)(c1cc(F)c2c(c1)C(=O)N(Cc1ccc(C#N)cn1)[C@@]2(O[C@H]1C[C@@H](O)C1)c1ccc(Cl)cc1)c1cnn(C)c1 (single isomer, unassigned) [Example 361] the inhibition at 10 µM [1, 3] was 8%.

Work on CC[C@@](O)(c1cc(F)c2c(c1)C(=O)N(Cc1ncc(Cl)cn1)[C@@]2(OC)c1ccc(Cl)cc1)C1CCN(CCO)CC1 (single isomer, unassigned) [Example 550] yielded an inhibition at 10 µM [1, 3] of 33%.

Work on Cn1cnc(C(O)(c2cc(F)c3c(c2)C(=O)N(Cc2ccc(C#N)cn2)[C@@]3(O[C@H]2CCOC2)c2ccc(Cl)cc2)C2CC2)c1 (stereo partly drawn) [Example 433, 6-{[(1R)-1-(4-chlorophenyl)-5-[cyclopropyl(hydroxy)(1-methyl-1H-imidazol-4-yl)methyl]-7-fluoro-3-oxo-1-[(3S)-oxolan-3-yloxy]-2,3-dihydro-1H-isoindol-2-yl]methyl}pyridine-3-carbonitrile] yielded an inhibition at 30 µM ([1]; read-out: SN40R2 % inhibition at 30) of 20%.

CCC(O)(c1cc(F)c2c(c1)C(=O)N(Cc1ncc(Cl)cn1)[C@@]2(OC[C@@H](C)O)c1ccc(Cl)cc1)C1(F)CCN(C)CC1 (single isomer, unassigned) [Example 572] was tested, and the inhibition at 10 µM [1, 4] was 23%.

CN1CCN(CC(C)(O)c2cc(F)c3c(c2)C(=O)N(Cc2ccc(Cl)cc2S(C)(=O)=O)[C@@]3(OC2CCOC2)c2ccc(Cl)cc2)CC1 (single isomer, unassigned) [Example 67] was tested, and the IC50 ([1]; 72 h) was 9.4 µM.

C=C(CO)CO[C@]1(c2ccc(Cl)cc2)c2c(F)cc(C(O)(CC)c3cn(C)cn3)cc2C(=O)N1Cc1ccc(C#N)cn1 (stereo partly drawn) [Example 466, 6-{[(1R)-1-(4-chlorophenyl)-7-fluoro-5-[1-hydroxy-1-(1-methyl-1H-imidazol-4-yl)propyl]-1-(3-hydroxy-2-methylidenepropoxy)-3-oxo-2,3-dihydro-1H-isoindol-2-yl]methyl}pyridine-3-carbonitrile] gave an inhibition at 10 µM [1, 3] of 4%.

In the case of CC[C@](O)(c1cc(F)c2c(c1)C(=O)N(Cc1ncc(Cl)cn1)[C@@]2(OC)c1ccc(Cl)cc1)C1CCN(C)CC1 [Example 566, (3R)-3-(4-chlorophenyl)-2-[(5-chloropyrimidin-2-yl)methyl]-4-fluoro-6-[(1R)-1-hydroxy-1-(1-methylpiperidin-4-yl)propyl]-3-methoxy-2,3-dihydro-1H-isoindol-1-one], the inhibition at 10 µM [1, 3] was 46%.

Compound CC(=O)N1CCC(C(C)(O)c2cc(F)c3c(c2)C(=O)N(Cc2ncc(Cl)cn2)[C@@]3(O[C@H]2C[C@@H](O)C2)c2ccc(Cl)cc2)CC1 (single isomer, unassigned) [Example 425] has an inhibition at 10 µM [1, 3] of 7%.

For CO[C@]1(c2ccc(Cl)cc2)c2ccc(C(C)(O)CN3CCN(C)CC3)cc2C(=O)N1Cc1ccc(Cl)cn1 (stereo partly drawn) [Example 255, (3R)-3-(4-chlorophenyl)-2-[(5-chloropyridin-2-yl)methyl]-6-[2-hydroxy-1-(4-methylpiperazin-1-yl)propan-2-yl]-3-methoxy-2,3-dihydro-1H-isoindol-1-one], the IC50 [1] was 7.1 µM.

Work on O=C1c2cc(C(O)C3CCS(=O)(=O)CC3)cc(F)c2[C@](OCC2(O)CC2)(c2ccc(Cl)cc2)N1Cc1ncc(Cl)cn1 (stereo partly drawn) [Example 399, 4-{[(1R)-1-(4-chlorophenyl)-2-[(5-chloropyrimidin-2-yl)methyl]-7-fluoro-1-[(1-hydroxycyclopropyl)methoxy]-3-oxo-2,3-dihydro-1H-isoindol-5-yl](hydroxy)methyl}-1λ6-thiane-1,1-dione] yielded an inhibition at 10 µM [1, 3] of 2%.

CC[C@@](O)(c1cc(F)c2c(c1)C(=O)N(Cc1ncc(Cl)cn1)[C@@]2(OC[C@@H](C)O)c1ccc(Cl)cc1)C1CCN(C)CC1 [Example 562, (3R)-3-(4-chlorophenyl)-2-[(5-chloropyrimidin-2-yl)methyl]-4-fluoro-6-[(1S)-1-hydroxy-1-(1-methylpiperidin-4-yl)propyl]-3-[(2R)-2-hydroxypropoxy]-2,3-dihydro-1H-isoindol-1-one] was tested, and the inhibition at 10 µM [1, 3] was 1%.

COc1nc(C)ccc1CN1C(=O)c2cc(C(C)(C)O)cc(F)c2[C@]1(OC)c1ccc(Cl)cc1 [Example 315, (3R)-3-(4-chlorophenyl)-4-fluoro-6-(2-hydroxypropan-2-yl)-3-methoxy-2-[(2-methoxy-6-methylpyridin-3-yl)methyl]-2,3-dihydro-1H-isoindol-1-one] showed an IC50 [1] of 13 µM.

[2H]C([2H])(c1ncc(Cl)cn1)N1C(=O)c2cc(C(C)(O)C3(F)CCOCC3)cc(F)c2[C@]1(O[C@H]1CCOC1)c1ccc(Cl)cc1 (stereo partly drawn) [Example 516, (3R)-3-(4-chlorophenyl)-2-[(5-chloropyrimidin-2-yl)dideuteromethyl]-4-fluoro-6-[1-(4-fluorooxan-4-yl)-1-hydroxyethyl]-3-[(3S)-oxolan-3-yloxy]-2,3-dihydro-1H-isoindol-1-one] gave an inhibition at 10 µM [1, 3] of 4%.

Compound CC(O)(c1cc(F)c2c(c1)C(=O)N(Cc1ccc(C#N)cn1)[C@@]2(OC[C@H](O)CF)c1ccc(Cl)cc1)C1(F)CCOCC1 (stereo partly drawn) [Example 579, 6-{[(1R)-1-(4-chlorophenyl)-7-fluoro-1-[(2S)-3-fluoro-2-hydroxypropoxy]-5-[1-(4-fluorooxan-4-yl)-1-hydroxyethyl]-3-oxo-2,3-dihydro-1H-isoindol-2-yl]methyl}pyridine-3-carbonitrile] has an inhibition at 10 µM [1, 3] of 4%.
